Patent US6737383B1, “Herbicidal oxadiazolidines” (priority 1999, dated 2004)

Key:
bedstraw = assay: Test B pre/postemergence bedstraw; type: in vivo, Galium aparine; conditions: Preemergence
Method in brief: (§1)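 Herbicidal effect was estimated by eye on a ten-point control scale after plants spent twelve to sixteen days in a greenhouse following soil or foliar treatment. Foliar sprays targeted plants at one to four leaves; all doses were formulated in a non-phytotoxic solvent with surfactant.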

blackgrass = assay: Test B pre/postemergence blackgrass; type: in vivo, Alopecurus myosuroides
Method in brief: as §1

surinam grass = assay: Test B pre/postemergence surinam grass; type: in vivo, Brachiaria decumbens
Method in brief: as §1

cocklebur = assay: Test B pre/postemergence cocklebur; type: in vivo, Xanthium strumarium
Method in brief: as §1

corn = assay: Test B pre/postemergence corn; type: in vivo, Zea mays; conditions: for Corn plant response rating: scale of 0 to 10 where 0 is no effect and 10 is complete control
Method in brief: as §1

giant foxtail = assay: Test B pre/postemergence giant foxtail; type: in vivo, Setaria faberii; conditions: for Giant foxtail plant response rating: scale of 0 to 10 where 0 is no effect and 10 is complete control
Method in brief: as §1

morningglory = assay: Test B pre/postemergence morningglory; type: in vivo, Ipomoea hederacea; conditions: for Morningglory plant response rating: scale of 0 to 10 where 0 is no effect and 10 is complete control
Method in brief: as §1

pigweed = assay: Test B pre/postemergence pigweed; type: in vivo, Amaranthus retroflexus; conditions: for Redroot pigweed plant response rating: scale of 0 to 10 where 0 is no effect and 10 is complete control
Method in brief: as §1

rape = assay: Test B pre/postemergence rape; type: in vivo, Brassica napus; conditions: for Rape plant response rating: scale of 0 to 10 where 0 is no effect and 10 is complete control
Method in brief: as §1

soybean = assay: Test B pre/postemergence soybean; type: in vivo, Glycine max; conditions: for Soybean plant response rating: scale of 0 to 10 where 0 is no effect and 10 is complete control
Method in brief: as §1

sugar beet = assay: Test B pre/postemergence sugar beet; type: in vivo, Beta vulgaris; conditions: for Sugarbeets plant response rating: scale of 0 to 10 where 0 is no effect and 10 is complete control
Method in brief: as §1

velvetleaf = assay: Test B pre/postemergence velvetleaf; type: in vivo, Abutilon theophrasti; conditions: for Velvetleaf plant response rating: scale of 0 to 10 where 0 is no effect and 10 is complete control
Method in brief: as §1

wheat = assay: Test B pre/postemergence wheat; type: in vivo, Triticum aestivum; conditions: for Wheat plant response rating: scale of 0 to 10 where 0 is no effect and 10 is complete control
Method in brief: as §1

wild oat = assay: Test B pre/postemergence wild oat; type: in vivo, Avena fatua; conditions: for Wild oats plant response rating: scale of 0 to 10 where 0 is no effect and 10 is complete control
Method in brief: as §1

rice = assay: Test B flood test rice; type: in vivo, Oryza sativa; conditions: Pre-emergence
Method in brief: (§2)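 Plants were grown to the 2-leaf stage before treatment with test chemical, then held in a greenhouse for twelve to sixteen days. Injury was visually rated against untreated controls on a 0–10 scale, where 0 is no effect and 10 is complete control.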

smallflower flatsedge = assay: Test B flood test smallflower flatsedge; type: in vivo, Cyperus difformis; conditions: Pre-emergence
Method in brief: as §2

[1] = Postemergence, Rate 125 g/ha, scale 0 to 10, 0 is no effect, 10 is complete control
[2] = Preemergence, Rate 62 g/ha, scale 0 to 10 (0 no effect, 10 complete control)
[3] = Preemergence, Rate 250 g/ha, scale of 0 to 10 where 0 is no effect and 10 is complete control
[4] = Preemergence, Rate 500 g/ha, scale of 0 to 10 where 0 is no effect and 10 is complete control
[5] = Rate 62 g/ha, Postemergence, scale of 0 to 10 where 0 is no effect and 10 is complete control
[6] = Rate 250 g/ha, Postemergence, scale of 0 to 10 where 0 is no effect and 10 is complete control
[7] = Rate 500 g/ha, Postemergence, scale 0 to 10, 0 no effect, 10 complete control
[8] = Rate 62 g/ha, flood test species, visual evaluation after twelve to sixteen days
[9] = Rate 125 g/ha, flood test species, scale 0 to 10 where 0 is no effect and 10 is complete control
[10] = Rate 250 g/ha, flood-test species, scale 0 to 10, 0 is no effect, 10 is complete control
[11] = Rate 500 g/ha, flood test species, scale 0 to 10 (0 no effect, 10 complete control)

CCC(CC)n1c(=O)on(C(=O)N(c2ccc(F)cc2F)C(C)C)c1=O [Compound 353]
Plant response rating, Bedstraw (bedstraw; Rate 62 g/ha, scale 0 to 10 (0 no effect, 10 complete control)): 0
Bedstraw plant response rating (0 to 10 scale) (bedstraw; Rate 125 g/ha): 0
Bedstraw plant response rating (bedstraw; Rate 500 g/ha, scale of 0 to 10 where 0 is no effect and 10 is complete control): 3
Plant response rating, Blackgrass (blackgrass; [1]): 4
Plant response rating, Blackgrass (blackgrass; [2]): 2
Blackgrass plant response rating (blackgrass; [3]): 7
Blackgrass plant response rating (blackgrass; [4]): 8
Blackgrass plant response rating (blackgrass; [5]): 0
Plant response rating, Blackgrass (blackgrass; [6]): 4
Plant response rating, Blackgrass (blackgrass; [7]): 9
Plant response rating, B. signalgrass (surinam grass; [1]): 0
Plant response rating, B. signalgrass (surinam grass; [2]): 0
B. signalgrass plant response rating (0 to 10 scale, 0 is no effect, 10 is complete control) (surinam grass; Preemergence, Rate 125 g/ha): 2
B. signalgrass plant response rating (surinam grass; [3]): 5
B. signalgrass plant response rating (surinam grass; [4]): 5
B. signalgrass plant response rating (surinam grass; [5]): 0
Plant response rating, B. signalgrass (surinam grass; [6]): 0
Plant response rating, B. signalgrass (surinam grass; [7]): 0
Plant response rating, Cocklebur (cocklebur; [1]): 0
Plant response rating, Cocklebur (cocklebur; [2]): 0
Cocklebur plant response rating (0 to 10 scale) (cocklebur; Preemergence, Rate 125 g/ha): 0
Cocklebur plant response rating (cocklebur; [5]): 0
Plant response rating, Cocklebur (cocklebur; [7]): 1
Plant response rating, Corn (corn; [1]): 0
Plant response rating, Corn (corn; [2]): 0
Corn plant response rating (0 to 10 scale) (corn; Preemergence, Rate 125 g/ha): 3
Corn plant response rating (corn; Preemergence, Rate 250 g/ha): 3
Corn plant response rating (corn; Preemergence, Rate 500 g/ha): 7
Corn plant response rating (corn; Rate 62 g/ha, Postemergence): 0
Plant response rating, Corn (corn; [7]): 0
Plant response rating, Giant foxtail (giant foxtail; [1]): 3
Plant response rating, Giant foxtail (giant foxtail; [2]): 9
Giant foxtail plant response rating (0 to 10 scale) (giant foxtail; Preemergence, Rate 125 g/ha): 10
Giant foxtail plant response rating (giant foxtail; Preemergence, Rate 250 g/ha): 10
Giant foxtail plant response rating (giant foxtail; Preemergence, Rate 500 g/ha): 10
Giant foxtail plant response rating (giant foxtail; Rate 62 g/ha, Postemergence): 0
Plant response rating, Giant foxtail (giant foxtail; [7]): 8
Plant response rating, Morningglory (morningglory; [1]): 3
Plant response rating, Morningglory (morningglory; [2]): 0
Morningglory plant response rating (0 to 10 scale) (morningglory; Preemergence, Rate 125 g/ha): 0
Morningglory plant response rating (morningglory; Preemergence, Rate 250 g/ha): 1
Morningglory plant response rating (morningglory; Preemergence, Rate 500 g/ha): 1
Morningglory plant response rating (morningglory; Rate 62 g/ha, Postemergence): 3
Plant response rating, Morningglory (morningglory; [7]): 10
Plant response rating, Redroot pigweed (pigweed; [1]): 3
Plant response rating, Redroot pigweed (pigweed; [2]): 7
Redroot pigweed plant response rating (0 to 10 scale) (pigweed; Preemergence, Rate 125 g/ha): 10
Redroot pigweed plant response rating (pigweed; Preemergence, Rate 250 g/ha): 10
Redroot pigweed plant response rating (pigweed; Preemergence, Rate 500 g/ha): 10
Redroot pigweed plant response rating (pigweed; Rate 62 g/ha, Postemergence): 2
Plant response rating, Redroot pigweed (pigweed; [7]): 6
Plant response rating, Rape (rape; [1]): 2
Plant response rating, Rape (rape; [2]): 0
Rape plant response rating (0 to 10 scale) (rape; Preemergence, Rate 125 g/ha): 0
Rape plant response rating (rape; Preemergence, Rate 250 g/ha): 1
Rape plant response rating (rape; Preemergence, Rate 500 g/ha): 5
Rape plant response rating (rape; Rate 62 g/ha, Postemergence): 2
Plant response rating, Rape (rape; [7]): 4
Plant response rating, Soybean (soybean; [1]): 4
Plant response rating, Soybean (soybean; [2]): 0
Soybean plant response rating (0 to 10 scale) (soybean; Preemergence, Rate 125 g/ha): 0
Soybean plant response rating (soybean; Preemergence, Rate 250 g/ha): 0
Soybean plant response rating (soybean; Preemergence, Rate 500 g/ha): 0
Soybean plant response rating (soybean; Rate 62 g/ha, Postemergence): 4
Plant response rating, Soybean (soybean; [7]): 6
Plant response rating, Sugarbeets (sugar beet; [1]): 0
Plant response rating, Sugarbeets (sugar beet; [2]): 0
Sugarbeets plant response rating (0 to 10 scale) (sugar beet; Preemergence, Rate 125 g/ha): 2
Sugarbeets plant response rating (sugar beet; Preemergence, Rate 250 g/ha): 2
Sugarbeets plant response rating (sugar beet; Preemergence, Rate 500 g/ha): 4
Sugarbeets plant response rating (sugar beet; Rate 62 g/ha, Postemergence): 0
Plant response rating, Sugarbeets (sugar beet; [7]): 6
Plant response rating, Velvetleaf (velvetleaf; [1]): 0
Plant response rating, Velvetleaf (velvetleaf; [2]): 0
Velvetleaf plant response rating (0 to 10 scale) (velvetleaf; Preemergence, Rate 125 g/ha): 1
Velvetleaf plant response rating (velvetleaf; Preemergence, Rate 250 g/ha): 4
Velvetleaf plant response rating (velvetleaf; Preemergence, Rate 500 g/ha): 6
Velvetleaf plant response rating (velvetleaf; Rate 62 g/ha, Postemergence): 0
Plant response rating, Velvetleaf (velvetleaf; [7]): 2
Plant response rating, Wheat (wheat; [1]): 0
Plant response rating, Wheat (wheat; [2]): 0
Wheat plant response rating (0 to 10 scale) (wheat; Preemergence, Rate 125 g/ha): 0
Wheat plant response rating (wheat; Preemergence, Rate 250 g/ha): 2
Wheat plant response rating (wheat; Preemergence, Rate 500 g/ha): 2
Wheat plant response rating (wheat; Rate 62 g/ha, Postemergence): 0
Plant response rating, Wheat (wheat; [7]): 0
Plant response rating, Wild oats (wild oat; [1]): 0
Plant response rating, Wild oats (wild oat; [2]): 0
Wild oats plant response rating (0 to 10 scale) (wild oat; Preemergence, Rate 125 g/ha): 1
Wild oats plant response rating (wild oat; Preemergence, Rate 250 g/ha): 4
Wild oats plant response rating (wild oat; Preemergence, Rate 500 g/ha): 6
Wild oats plant response rating (wild oat; Rate 62 g/ha, Postemergence): 0
Plant response rating, Wild oats (wild oat; [7]): 2
Plant response rating, Rice (0 to 10 scale, 0 is no effect, 10 is complete control) (rice; [8]): 0
Rice plant response rating (rice; [9]): 0
Rice plant response rating (rice; [10]): 0
Rice plant response rating (rice; [11]): 4
Plant response rating, S. Flatsedge (0 to 10 scale, 0 is no effect, 10 is complete control) (smallflower flatsedge; [8]): 0
S. Flatsedge plant response rating (smallflower flatsedge; [9]): 2
S. Flatsedge plant response rating (smallflower flatsedge; [10]): 2
S. Flatsedge plant response rating (smallflower flatsedge; [11]): 7
